{"source": "patent US8067231B2", "about": "(priority 2005, dated 2011)", "test_system": "Neuro-2A", "type": "cell-based, mouse"}
{"smiles": "CC1=C(/C=C/C(C)=C/C=C/C(C)=C/C(=O)O)C(C)(C)CCC1", "note": "[all trans retinoic acid, All Trans-Retinoic acid]", "values": [{"measurement": "BoNT/A SNAP25197-cleavage product (uptake of BoNT/A) after differentiation reagent treatment", "value": "increase"}]}
